The target of data set [1] is T1, CYP17 (human testicular microsome) (Homo sapiens, UniProt P05093).
T1 construct: using microsomal fraction from human testis (Celsis Cat #S00110) as the enzyme source; tissue Celsis S00110; host or cells: human testis microsomal fraction
T1 sequence (P05093 1-508): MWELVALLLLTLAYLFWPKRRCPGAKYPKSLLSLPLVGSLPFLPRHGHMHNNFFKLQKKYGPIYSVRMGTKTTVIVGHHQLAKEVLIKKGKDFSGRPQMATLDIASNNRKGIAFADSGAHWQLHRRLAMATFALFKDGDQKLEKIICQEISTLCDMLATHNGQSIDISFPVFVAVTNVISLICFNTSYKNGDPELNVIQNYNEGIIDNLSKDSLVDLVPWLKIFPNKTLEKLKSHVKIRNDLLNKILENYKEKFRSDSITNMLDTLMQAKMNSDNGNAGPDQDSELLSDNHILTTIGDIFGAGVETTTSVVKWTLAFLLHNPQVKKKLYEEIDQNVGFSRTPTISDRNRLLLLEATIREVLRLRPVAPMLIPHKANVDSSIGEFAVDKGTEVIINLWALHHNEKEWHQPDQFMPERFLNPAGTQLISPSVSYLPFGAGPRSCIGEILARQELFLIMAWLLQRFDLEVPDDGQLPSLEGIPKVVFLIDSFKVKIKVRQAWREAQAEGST
As to the kind of experiment: CYP17 enzymatic assay (% inhibition at 1 nM) (Biological Example 12). It counts as biochemical.

Data set [2] is described as follows: Human liver microsome stability assay (Biological Example 8b). Conditions: liver microsomes, pH 7.4. (In general: Liver microsomes are a subcellular fraction often used to study metabolism.)
Procedure: The reaction was started with addition of excess NADPH (5 mg/mL, 15 μL in 0.1 M potassium phosphate buffer, 1.0 mM EDTA, pH 7.4), the total volume is 45 μL (compound final concentration was 1 μM). […] 50 μL of the supernatant was transferred from each well into a 96-well sample plate containing 50 μL of ultra-pure water (Millipore) for LC-MS/MS analysis.
Data set [3] has as its target T2, Cyp21 enzyme (Human HEK 293-Cyp21 stable transfected cells) (Homo sapiens, UniProt P08686).
T2 construct: expressed in transfected cells
T2 sequence (P08686 1-495): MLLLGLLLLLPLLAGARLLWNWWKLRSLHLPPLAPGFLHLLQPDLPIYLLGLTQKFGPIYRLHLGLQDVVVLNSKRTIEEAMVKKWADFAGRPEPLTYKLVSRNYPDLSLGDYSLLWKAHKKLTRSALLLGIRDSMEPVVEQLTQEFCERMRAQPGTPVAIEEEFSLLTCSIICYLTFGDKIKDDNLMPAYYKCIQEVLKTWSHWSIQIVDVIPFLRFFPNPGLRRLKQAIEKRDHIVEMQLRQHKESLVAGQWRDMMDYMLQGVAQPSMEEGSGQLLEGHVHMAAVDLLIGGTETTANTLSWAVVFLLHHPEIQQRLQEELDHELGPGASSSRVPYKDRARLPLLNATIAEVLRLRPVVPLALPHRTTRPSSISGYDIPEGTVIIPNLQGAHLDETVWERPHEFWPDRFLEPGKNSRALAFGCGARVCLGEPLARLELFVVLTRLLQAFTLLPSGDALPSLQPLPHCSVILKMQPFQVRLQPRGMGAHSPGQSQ
The data set is described as follows: CYP21-HEK293 enzymatic assay (IC50) (Biological Example 11). In kind it is cell-based.
Procedure: This assay was used to determine compound activity against Cyp21 enzyme. […] The next day, 20 μL medium was carefully removed and 10 μL of 10× pre-made compounds in DMEM+10% FBS+10% methanol was transferred to the wells to final concentrations of 1000, 100, 10, 1, or 0.1 nM. Mock treatment was 1% methanol in growth media and the cells were left at 37° C., 5% CO2 for 5 hr. After the incubation, 10 μL of substrate progesterone (Sigma) was added to the wells to make a final concentration of 10 μM. The cells were incubated the cells at 37° C. for 20 hr. At the end of incubation, 90 μL of conditioned media was removed to measure DOC level by ELISA.
The next day, the plates were washed twice with 250 μl of wash solution (0.015M PBS pH 7.4 containing 0.05% Tween 20). After being washed, the wells were blocked with 250 μL blocking buffer (3% BSA in 0.025M PBS, pH 7.4) at 37° C. for 2 h. The plates were washed again 3 times as before, and then 90 μL of sample /standards (prepared in complete growth media) was added into the appropriate wells followed by 10 μL of antibody solution (1:450 rabbit anti-DOC in 0.6% BSA/PBS). The plates were incubated at room temperature for 2 h on a shaker. The contents of the wells were removed and the plate was washed 4 times. After the final wash, 100 μL of secondary antibody (1:12000 HRP-goat-anti-rabbit IgG conjugate 0.6% BSA/PBS) was added into each well. […] The plate was washed again 4 times and 100 μL of TMB substrate solution was added to each well. The plate was incubated at room temperature for 10 min. 100 μL of stop solution was added to each well and the optical density was read at 450 nm.
The mean absorbance value for each sample was used to determine the corresponding concentration from the standard curve. Data was analyzed with “log(antagonist) vs response variable slope” under “non-linear regression analysis” using Prism5 software.

Data set [4] addresses T1, CYP17 (human testicular microsome). As to the kind of experiment: CYP17 enzymatic assay (IC50) (Biological Example 4). It counts as biochemical.
Data set [5] addresses T3, CYP17 (H295R cells) (Homo sapiens, UniProt P05093).
T3 construct: endogenous in cells; host or cells: H295R cells
T3 sequence (P05093 1-508): T1 sequence (P05093 1-508)
The data set is described as follows: CYP17 cellular assay (IC50), testosterone in H295R cells (Biological Example 7). It counts as cell-based. Conditions: H295R cells. On the procedure: The assays were performed in 96-well plates. Typically H295R cells were seeded at 4.5×10^4 cells/well in 100 μL Growth Medium containing DMEM/F-12 (Gibco/Invitrogen; 11330-032), 2.5% Nu-Serum (BD Bioscience; 355100) and ITS (BD Bioscience; 354352), and cultured at 37° C., 5% CO2 for 24 hr. The next day, media were carefully removed and cells were washed twice with 200 μL 1×HBSS++. Test compounds were then added to the cells at 100, 10, 1, 0.1 nM final concentrations in 125 μL volume per well in serum-free media containing DMEM/F-12 and ITS+ Premix (BD Bioscience; 354352) with 0.1% methanol. Serum-free media with 0.1% methanol without test compound was used as control. Cells were incubated with compounds at 37° C. for additional 24 hours, and the cultured media from each compound treated well was harvested for measurement of testosterone concentration by ELISA according to manufacturer's instruction (Assay Design). Testosterone concentration of each sample was plotted vs. the concentration of the test compounds.

Data set [6] has as its target T1, CYP17 (human testicular microsome). The data set is described as follows: CYP17 enzymatic assay (% inhibition at 10 nM), version 1 (Biological Example 5). It counts as biochemical.
Procedure: The assays were performed in 96-well plates. Typical assays were carried out in total 100 μL volume that included test compounds at 10 nM concentration, 1× reaction buffer, 0.5 mM NADPH, 1 μM 17α-hydroxypregnenolone, and 2.5 μL of diluted human testicular microsome (Celsis. Cat #S00110). Reaction without test compound served as positive control. Reactions were allowed to incubate at 37° C. for 90 minutes with gentle shaking. The reaction was stopped by directly applying the enzymatic reaction mixture to ELISA plate for evaluation of DHEA concentration according to manufacturer's protocol (IBL America). A standard curve (OD450 vs. DHEA concentration) was generated using purified DHEA. […] Percent inhibition (inhibition %) of the compound was calculated using normalized DHEA concentration based on following formula: 100-([DHEA] of compound/[DHEA] of positive control *100).
[7] abbreviates: compound at 1 nM, read-out: CYP17 enzymatic assay % inhibition at 1 nM (Biological Example No. 12).
Where [8] appears, read: HEK 293-Cyp21 cells, read-out: CYP21-HEK293 enzymatic assay IC50 (Biological Example No. 11).
Where [9] appears, read: human testicular microsome, read-out: CYP17 enzymatic assay IC50 (Biological Example No. 4).
Where [10] appears, read: testosterone, read-out: Biological Example No. 7: CYP17 cellular assay IC50.
Setting [11] is: compound at 1 nM, read-out: Biological Example No. 12: CYP17 enzymatic assay % inhibition at 1 nM.
The mark [12] stands for this setting: human testicular microsome, read-out: Biological Example No. 4: CYP17 enzymatic assay IC50.
[13] abbreviates: testosterone, read-out: CYP17 cellular assay IC50 (Biological Example No. 7).
The mark [14] stands for this setting: HEK 293-Cyp21 cells, read-out: Biological Example No. 11: CYP21-HEK293 enzymatic assay IC50.
[15] abbreviates: 10 nM compound, DHEA by ELISA, read-out: Biological Example No. 5: CYP17 percent inhibition at 10 nM (version 1).
Setting [16] is: testosterone by ELISA, 24 hours, read-out: Biological Example No. 7: CYP17 cellular assay IC50.
Where [17] appears, read: human testicular microsome, DHEA by ELISA, read-out: Biological Example No. 4: CYP17 enzymatic assay IC50.

In patent US20130252930A1 (BIOMARIN PHARMACEUTICAL INC., priority 2010, published 2013) one finds inhibition, half-life and IC50 data, which are given here for 13 molecules.

SMILES strings stand for the structures. Where two headings read alike, the source gives them in different places.

For orientation: inhibition means the change of the read-out against control, counted positive when it falls. One may read the half-life as how long it takes for the measured level to halve. Low values mean fast loss, high ones slow loss. A word on the IC50: it is the concentration at which inhibition is half-maximal. `C[C@]12CCC3C(CCC4=CC(=O)CC[C@@]43C)C1=CC=C2c1cncnc1` (stereo partly drawn) [Compound 471, (10R,13S)-10,13-dimethyl-17-(pyrimidin-5-yl)-6,7,8,9,10,11,12,13-octahydro-1H-cyclopenta[a]phenanthren-3(2H)-one]: the inhibition at 0.001 µM in data set [1] (setting [7]) is more than 50%. Also, the half-life at 1 μM in data set [2] fell in the range of 1 to 50 min. Further, the IC50 is 10 to 100 nM in data set [3] (setting [8]) and less than 11 nM in data set [4] (setting [9]).
For `CC1C(O)CC[C@@]2(C)C1CC[C@@H]1[C@@H]2CC[C@]2(C)C(c3cccnc3)=CC[C@@H]12` (stereo partly drawn) [Compound 304, (10R,13S)-4,10,13-trimethyl-17-(pyridin-3-yl)-2,3,4,5,6,7,8,9,10,11,12,13,14,15-tetradecahydro-1H-cyclopenta[a]phenanthren-3-ol], the IC50 is less than 15 nM in data set [5] (setting [10]) and less than 11 nM in data set [4] (setting [12]). In data set [1] (setting [11]), the inhibition at 0.001 µM was 10 to 50%.
Regarding `C[C@]12CC[C@H]3[C@@H](C=CC4=CC(=O)CC[C@@]43C)C1=CC=C2c1cccnc1` [Compound 289, (10R,13S)-10,13-dimethyl-17-(pyridin-3-yl)-8,9,10,11,12,13-hexahydro-1H-cyclopenta[a]phenanthren-3(2H)-one], in data set [1] (setting [7]), the inhibition at 0.001 µM was more than 50%. In addition, the half-life at 1 μM in data set [2] is 1 to 50 min. Besides, the IC50 in data set [3] (setting [8]) was 10 to 100 nM; in data set [4] (setting [9]), less than 11 nM.
In the case of `CN(C)CC(=O)O[C@H]1CC[C@@]2(C)C(=CC[C@H]3C4=CC=C(c5cccnc5)[C@@]4(C)CC[C@@H]32)C1` [195′, (3S,10R,13S)-10,13-dimethyl-17-(pyridin-3-yl)-2,3,4,7,8,9,10,11,12,13-decahydro-1H-cyclopenta[a]phenanthren-3-yl 2-(dimethylamino)acetate], the IC50 in data set [5] (setting [13]) lay in the range of 15 to 100 nM. In addition, in data set [1] (setting [7]), the inhibition at 0.001 µM is more than 50%.
As for `CCC1CC2C3=CC=C(c4cccnc4)[C@@]3(C)CCC2[C@@]2(C)CCC(=O)C=C12` (stereo partly drawn) [Compound 482, (10R,13S)-6-ethyl-10,13-dimethyl-17-(pyridin-3-yl)-6,7,8,9,10,11,12,13-octahydro-1H-cyclopenta[a]phenanthren-3(2H)-one], the inhibition at 0.001 µM in data set [1] (setting [11]) was in the range of 10 to 50%. Further, the half-life at 1 μM in data set [2] lay within 1 to 50 min. Further, the IC50 in data set [3] (setting [14]) is 10 to 100 nM; in data set [4], less than 11 nM.
For `CC1C[C@H]2C3=CC=C(c4cccnc4)[C@@]3(C)CC[C@@H]2[C@@]2(C)CCC(=O)C=C12` (stereo partly drawn) [Compound 315, (10R,13S)-6,10,13-trimethyl-17-(pyridin-3-yl)-6,7,8,9,10,11,12,13-octahydro-1H-cyclopenta[a]phenanthren-3(2H)-one], the inhibition at 0.001 µM in data set [1] (setting [11]) is more than 50%. In data set [2], this molecule gave a half-life at 1 μM of 1 to 50 min. The IC50 was less than 10 nM in data set [3] (setting [14]) and less than 11 nM in data set [4].
In the case of `CC(=O)O[C@H]1CC[C@@]2(C)[C@@H](CC[C@@H]3[C@@H]2CC[C@]2(C)C(n4ccnn4)=CC[C@@H]32)C1` [Compound 130, (3S,5S,8R,9S,10S,13S,14S)-10,13-dimethyl-17-(1H-1,2,3-triazol-1-yl)-2,3,4,5,6,7,8,9,10,11,12,13,14,15-tetradecahydro-1H-cyclopenta[a]phenanthren-3-yl acetate], the inhibition at 0.01 µM in data set [6] (setting [15]) was more than 80%. Besides, the results for the IC50 in data set [5] (setting [16]) and in data set [4] (setting [17]) were less than 15 nM and less than 11 nM, respectively.
Regarding `C[C@]12CC[C@H]3[C@@H](CCC45CC4C(O)CC[C@]35C)[C@@H]1CC=C2c1cccnc1` (stereo partly drawn) [Compound 314, (4aR,6aS)-4a,6a-dimethyl-7-(pyridin-3-yl)-1a,2,3,4,4a,4b,5,6,6a,9,9a,9b,10,11-tetradecahydro-1H-cyclopenta[a]cyclopropa[j]phenanthren-2-ol], the figures for the IC50 in data set [5] (setting [13]) and in data set [4] (setting [9]) were less than 15 nM and less than 11 nM, respectively. For the same molecule, the inhibition at 0.001 µM in data set [1] (setting [7]) is more than 50%.
For `C[C@]12CC[C@H]3[C@@H](CC=C4C[C@@H](O)CC[C@@]43C)C1=CC=C2c1cncc(C(F)F)c1` [Compound 272, (3S,10R,13S)-17-(5-(difluoromethyl)pyridin-3-yl)-10,13-dimethyl-2,3,4,7,8,9,10,11,12,13-decahydro-1H-cyclopenta[a]phenanthren-3-ol], the IC50 in data set [5] (setting [10]) was 15 to 100 nM. Besides, the inhibition at 0.001 µM in data set [1] (setting [11]) is less than 10%.
On to `C[C@]12CCCC(=O)C1CC[C@@H]1[C@@H]2CC[C@]2(C)C(c3cccnc3)=CC[C@@H]12` (stereo partly drawn) [Compound 89, (10R,13S)-10,13-dimethyl-17-(pyridin-3-yl)-2,3,5,6,7,8,9,11,12,13,14,15-dodecahydro-1H-cyclopenta[a]phenanthren-4(10H)-one], for which, in data set [6] (setting [15]), the inhibition at 0.01 µM was more than 80%. Besides, the IC50 in data set [5] (setting [16]) is less than 15 nM; in data set [4] (setting [17]) it was less than 11 nM.
In the case of `C[C@]12CCNC(=O)C=C1C(F)CC1C2CC[C@]2(C)C(c3cccnc3)=CCC12` (stereo partly drawn) [Compound 370, (5aR,7aS)-12-fluoro-5a,7a-dimethyl-8-(pyridin-3-yl)-3,4,5,5a,5b,6,7,7a,10,10a,11,12-dodecahydrocyclopenta[5,6]naphtho[1,2-d]azepin-2(10bH)-one], the inhibition at 0.001 µM in data set [1] (setting [11]) was more than 50%. In data set [2], this molecule displayed a half-life at 1 μM of 1 to 50 min. Further, the figures for the concentration for half-maximal inhibition (IC50) in data set [3] (setting [14]) and in data set [4] (setting [12]) were more than 1000 nM and less than 11 nM, respectively.
On the same counts, the results for `C[C@]12CCNC(=O)C=C1C1CC1[C@@H]1[C@@H]2CC[C@]2(C)C(c3cccnc3)=CC[C@@H]12` (stereo partly drawn) [Compound 382, (5aR,7aS)-5a,7a-dimethyl-8-(pyridin-3-yl)-3,4,5,5a,5b,6,7,7a,10,10a,10b,10c,11,11a-tetradecahydro-2H-cyclopenta[5,6]cyclopropa[3,4]naphtho[1,2-d]azepin-2-one] are more than 50%, 1 to 50 min, more than 100 nM and less than 11 nM.
As for `CC1C[C@H]2C3=CC=C(c4cccnc4)[C@@]3(C)CC[C@@H]2[C@@]2(C)C=CC(=O)C=C12` (stereo partly drawn) [Compound 349, (10R,13S)-6,10,13-trimethyl-17-(pyridin-3-yl)-6,7,8,9,10,11,12,13-octahydro-3H-cyclopenta[a]phenanthren-3-one], the inhibition at 0.01 µM in data set [6] (test compound at 10 nM, read-out: CYP17 enzymatic assay percent inhibition at 10 nM (Biological Example No. 5)) is more than 80%. Further, the inhibition at 0.001 µM in data set [1] (test compound at 1 nM, read-out: CYP17 enzymatic assay percent inhibition at 1 nM (Biological Example No. 12)) is more than 50%. In data set [2], the half-life at 1 μM fell in the range of 1 to 50 min. In addition, the IC50 in data set [3] (HEK 293-Cyp21 stable transfected cells, read-out: CYP21-HEK293 enzymatic assay IC50 (Biological Example No. 11)) is less than 10 nM.
